The values that follow come from ChEMBL document CHEMBL1201862, “PubChem BioAssay data set” (2004).

SMILES strings stand for the structures.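 Cells were grown in 96-well plates and exposed to each compound for 48 hours at five concentrations; endpoints were interpolated linearly between bracketing concentrations, or set to the highest concentration if not reached. Abbreviation: GI50, concentration required for 50% inhibition of growth.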 The source made the active and inactive calls. No stated cut-off is given here; in the data, active = GI50 up to about 1.1 µM and inactive = higher.

Test systems include HCC 2998; HOP-62; MDA-MB-435; HL-60; SK-OV-3; HCT-116; Malme-3M; OVCAR-3; RPMI-8226; UACC-62; SNB-75; LOX IMVI; RXF 393; Hs-578T; 786-0; NCI-H23; K562; NCI-H460; DU-145; MCF7.
Common to all, as to experiment: growth of human tumour cells (NCI), 48 h

As to `COc1ccc(Cl)cc1NC(=O)O/N=C(\Cl)C(C)C`, the GI50 was 16.4 µM (inactive) with HCC 2998; 18.4 µM (inactive) in the experiment with HOP-62; 18.3 µM (inactive) in the experiment with MDA-MB-435; 2.16 µM (inactive) with HL-60; 18.7 µM (inactive) with SK-OV-3; 7.19 µM (inactive) in the experiment on HCT-116. The GI50 is 1.94 µM (inactive) in the experiment on Malme-3M; 6 µM (inactive) with OVCAR-3; 2.06 µM (inactive) with RPMI-8226; 12.9 µM (inactive) in the experiment on UACC-62; 16.4 µM (inactive) in the experiment with SNB-75; 2.08 µM (inactive) in the experiment on LOX IMVI. Moreover, the GI50 is 3.76 µM (inactive) in the experiment on RXF 393; 23.7 µM (inactive) with Hs-578T; 13 µM (inactive) with 786-0; 17.6 µM (inactive) in the experiment with NCI-H23; 1.98 µM (inactive) in the experiment on K562; 17.1 µM (inactive) with NCI-H460. Moreover, the GI50 in the experiment on DU-145 was 19.3 µM (inactive); with MCF7, 6.71 µM (inactive).

Take `CC1=Nc2ccccc2/C1=C\c1c(C)[nH]c2ccccc12`: the GI50 in the experiment with HCC 2998 was 15.5 µM (inactive); with HOP-62, 23.2 µM (inactive); with MDA-MB-435, 6.59 µM (inactive); in the experiment with HL-60, 5.85 µM (inactive); in the experiment with SK-OV-3, 15.6 µM (inactive); in the experiment on HCT-116, 11.4 µM (inactive). The GI50 in the experiment on Malme-3M was 14.1 µM (inactive); in the experiment with OVCAR-3, 12.6 µM (inactive); in the experiment with RPMI-8226, 16.3 µM (inactive); in the experiment with UACC-62, 5.26 µM (inactive); in the experiment with SNB-75, 18.7 µM (inactive); in the experiment on LOX IMVI it was 13.1 µM (inactive). The GI50 was 10.6 µM (inactive) with RXF 393; 8.63 µM (inactive) with Hs-578T; 12 µM (inactive) in the experiment on 786-0; 13 µM (inactive) with NCI-H23; 7.21 µM (inactive) with K562; 17.8 µM (inactive) in the experiment on NCI-H460. Also, the GI50 with DU-145 was 15.8 µM (inactive); in the experiment with MCF7, 4.49 µM (inactive).

Take `CN(C)c1ccc(-c2ccc(N(C)C)c3n[se]nc23)c2n[se]nc12`: the GI50 with HCC 2998, with HOP-62, with MDA-MB-435, in the experiment with HL-60, in the experiment with SK-OV-3 and with HCT-116 was > 100 µM (inactive) throughout. The GI50 with Malme-3M, with OVCAR-3, in the experiment on RPMI-8226, in the experiment on UACC-62, in the experiment on SNB-75 and in the experiment with LOX IMVI was > 100 µM (inactive) in each case. The GI50 is > 100 µM (inactive) in the experiment with RXF 393; 88.1 µM (inactive) in the experiment on Hs-578T; > 100 µM (inactive) with 786-0; > 100 µM (inactive) in the experiment with NCI-H23; > 100 µM (inactive) with K562; > 100 µM (inactive) in the experiment with NCI-H460. The GI50 in the experiment on DU-145 and with MCF7 was > 100 µM (inactive) each time.

On to `c1ccc2cc(CN3CCC(C4CCN(Cc5ccc6ccccc6c5)CC4)CC3)ccc2c1`, for which the GI50 in the experiment with HCC 2998 is 1.1 µM (active); in the experiment on HOP-62, 2.49 µM (inactive); in the experiment on MDA-MB-435, 1.75 µM (inactive); with HL-60, 1.53 µM (inactive); with SK-OV-3, 10.1 µM (inactive); in the experiment on HCT-116, 6.79 µM (inactive). The GI50 in the experiment on Malme-3M was 1.19 µM (inactive); in the experiment with OVCAR-3 it was 4.59 µM (inactive); with RPMI-8226 it was 2.48 µM (inactive); with UACC-62, 2.03 µM (inactive); in the experiment on SNB-75 it was 2.67 µM (inactive); in the experiment on LOX IMVI it was 2.22 µM (inactive). Also, the GI50 is 2.74 µM (inactive) with RXF 393; 2.49 µM (inactive) in the experiment on Hs-578T; 2.45 µM (inactive) with 786-0; 11.4 µM (inactive) in the experiment on NCI-H23; 0.692 µM (active) in the experiment with K562; 3.11 µM (inactive) with NCI-H460. Further, the results for the GI50 with DU-145 and with MCF7 were 11.8 µM (inactive) and 2.06 µM (inactive), respectively.
